Article PMC12587552, “A nitrogen-containing diphyllin derivative C156-P1 exhibited broad-spectrum antiviral activity against Flaviviridae viruses by preventing endosomal acidification” (Antimicrobial Agents and Chemotherapy, 2025)
pEC50: −log10 of the molar value. Like-named read-outs stand apart in the source and are kept apart here.

How the values were obtained:
DENV-2 [1] = details: for SI (ratio of CC50 to EC50): DENV-2
JEV = assay: organism not typed; format: cell-based, JEV strain SA14-14-2; details: read-out: EC50 against JEV
IFN-I response / TLR3 = format: cell-based, human; details: A549 cells, DENV-2 MOI = 2, 50 nM, 12-48 hpi
Experimental: Fig 6 C156-P1 restricted DENV-2 release from the endosome into the cytoplasm by suppressing the ATP6V0A2 protein. (A and C) A549 cells were infected with DENV-2 (MOI = 2) and treated with C156-P1 (50 nM), and the cells were harvested at 12, 24, 36, and 48 hpi. The mRNA levels of IFNB1, IFIT1, ISG15, OAS1, and TLR3 were quantitated by RT-qPCR. (B) A549 cells were infected with DENV-2 (MOI = 2) and incubated with C156-P1 (50 nM) for 24 h, after which the cell lysates were analyzed by Western blot (left panel), and band density analysis was performed (right panel). […] The intensity of FITC staining was determined using a CytoFLEX flow cytometer (left panel), and the mean fluorescence intensity (MFI) was calculated (right panel). […] The colocalization of E and Rab7A proteins was analyzed using Pearson’s correlation coefficients with the JACoP plugin for ImageJ software. […] (F) A549 cells were treated with DMSO, C156-P1 (100 nM), or PHY34 (100 nM) for 48 h, and ATP6V0A2 mRNA levels were quantified by RT-qPCR. […] The intensity of FITC staining was determined by a flow cytometer (left panel), and the MFI was calculated (right panel). […] The DENV-2 NS3 protein was determined by Western blot. […] The levels of ATP6V0A2 mRNA, intracellular viral RNA, DENV-2 NS3 protein, and extracellular virus titer were assessed at 48 hpi. […]

HCV = assay: microbe, parasite or virus in culture; format: cell-based, hepatitis C virus genotype 2a JFH1; details: Hepatitis C virus, Huh-7, 72 h, read-out: EC50 against HCV
YFV = assay: microbe, parasite or virus in culture; format: cell-based, YFV vaccine strain 17D; details: Yellow fever virus, read-out: EC50 against YFV
V-ATPase = V-ATPase (Homo sapiens, UniProt Q9Y487); assay: ATPase activity assay on lysate of treated cells; format: cell-based; details: A549 cells treated 24 h; C156-P1 100 nM or 1000 nM, PHY34 100 nM, Baf-A1 100 nM; 2 µg total cell protein
DENV-2 [2] = assay: microbe, parasite or virus in culture; details: Dengue virus
in vitro = details: African green monkey
ATP6V0A2 = ATP6V0A2 mRNA level by RT-qPCR; format: cell-based, human
SeV = format: cell-based, Sendai virus
ZIKV, JEV, and YFV = assay: organism not typed; format: cell-based; details: read-out: EC50 against ZIKV, JEV, and YFV, bound stated
DENV-2, ZIKV, and JEV = assay: Viral binding and internalization assays; format: cell-based; details: A549 cells, MOI 2, viral RNA by RT-qPCR
DENV-3 = assay: microbe, parasite or virus in culture; format: cell-based, DENV-3 clone DV3syn_4M; details: Dengue virus, read-out: EC50 against DENV-3
DENV-2 [3] = assay: Time-of-drug-addition assay; format: cell-based, DENV-2 strain 16681; details: A549 cells, DENV-2 MOI 2, 50 nM, 48 hpi

Sequence of V-ATPase (Q9Y487 whole entry, looked up): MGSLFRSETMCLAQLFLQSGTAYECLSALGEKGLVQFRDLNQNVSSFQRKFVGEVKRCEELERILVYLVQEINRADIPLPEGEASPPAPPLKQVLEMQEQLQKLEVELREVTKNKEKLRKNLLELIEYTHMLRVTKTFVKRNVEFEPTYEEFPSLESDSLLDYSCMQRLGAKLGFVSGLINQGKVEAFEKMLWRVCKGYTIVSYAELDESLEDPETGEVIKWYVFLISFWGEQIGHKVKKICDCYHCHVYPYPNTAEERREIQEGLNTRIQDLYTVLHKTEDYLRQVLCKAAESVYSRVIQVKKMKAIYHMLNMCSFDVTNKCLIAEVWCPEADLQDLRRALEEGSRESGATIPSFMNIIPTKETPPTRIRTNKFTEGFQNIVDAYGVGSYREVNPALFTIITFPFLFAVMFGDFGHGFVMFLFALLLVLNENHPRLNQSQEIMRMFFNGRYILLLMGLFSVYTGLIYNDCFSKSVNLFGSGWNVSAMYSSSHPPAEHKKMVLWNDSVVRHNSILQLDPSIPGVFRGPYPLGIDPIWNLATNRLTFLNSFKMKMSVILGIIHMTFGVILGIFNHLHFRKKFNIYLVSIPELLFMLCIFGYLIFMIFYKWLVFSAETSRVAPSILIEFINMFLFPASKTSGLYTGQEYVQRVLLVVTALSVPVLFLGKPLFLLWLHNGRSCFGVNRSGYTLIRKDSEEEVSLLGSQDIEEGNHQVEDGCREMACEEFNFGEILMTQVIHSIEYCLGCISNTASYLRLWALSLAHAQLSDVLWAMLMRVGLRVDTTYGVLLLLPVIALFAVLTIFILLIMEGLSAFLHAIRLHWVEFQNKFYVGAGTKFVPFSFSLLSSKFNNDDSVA

Structure (SMILES): COc1cc2c(OCC#N)c3c(c(-c4ccc5c(c4)OCO5)c2cc1OC)C(=O)OC3 [Compound C156-P1]
- SI (ratio of CC50 to EC50) (DENV-2 [1]; A549 cells): 292.65
- Extracellular DENV-2 viral titers versus DMSO (DENV-2 [1]; A549 cells, MOI = 2, 50 nM, 24, 36, and 48 hpi, focus-forming assay): significantly decreased
- DENV-2 infection (NS3 protein, Western blot) (DENV-2 [1]; A549 cells, MOI = 2, 48 h, indicated concentrations): decreased with increasing concentrations of C156-P1
- SI (ratio of CC50 to EC50) (DENV-2 [1]; HUVEC cells): 142.42
- SI (ratio of CC50 to EC50) (DENV-2 [1]; Huh7 cells): 110.09
- SI (ratio of CC50 to EC50) (DENV-2 [1]; Vero cells): 113.94
- pEC50 (JEV; A549, 48 h): 8.58
- pEC50 (JEV; Vero, 48 h): 8.55
- TLR3 mRNA expression induced by DENV-2 (IFN-I response / TLR3): significantly reduced the expression of TLR3 mRNA
- mRNA levels of IFNB1 and ISGs (IFIT1, ISG15, OAS1) induced by DENV-2 (IFN-I response / TLR3): apparently suppressed
- pEC50 (HCV): 8.29
- pEC50 (YFV; A549, 48 h): 8.26
- pEC50 (YFV; Vero, 48 h): 8.40
- V-ATPase activity (V-ATPase): significantly reduced V-ATPase activity
- pEC50 (DENV-2 [2]; DENV2, A549, 48 h, read-out: EC50 against DENV-2): 8.87
- pEC50 (DENV-2 [2]; DENV2, HUVEC, 48 h, read-out: EC50 against DENV-2): 8.89
- pEC50 (DENV-2 [2]; DENV2, Huh-7, 48 h, read-out: EC50 against DENV-2): 8.35
- pEC50 (DENV-2 [2]; DENV2, Vero, 48 h, read-out: EC50 against DENV-2): 8.42
- pEC50 (DENV-2 [2]; DENV2, read-out: EC50 against DENV-2, bound stated in text): > 8.30
- CC50 (in vitro): 431 nM
- ATP6V0A2 mRNA expression (ATP6V0A2): decrease in ATP6V0A2 mRNA expression
- Inhibition of SeV infection (viral NP mRNA) (SeV): did not inhibit SeV infection
- pEC50 (ZIKV, JEV, and YFV): > 8.22
- Effect on internalization or binding steps of DENV-2, ZIKV, and JEV (DENV-2, ZIKV, and JEV): did not exhibit inhibitory effects
- pEC50 (DENV-3; DENV3, A549, 48 h): 8.32
- pEC50 (DENV-3; DENV3, Vero, 48 h): 8.31
- Intracellular viral RNA, NS3 protein and extracellular titers, before-, during- and after-incubation groups versus DMSO (DENV-2 [3]): significantly reduced levels
